Where two headings read alike, the source gives them in different places.
Key:
[1] = in vivo; cited from earlier work
[2] = macaques; cited from earlier work
[3] = albino rats; cited from earlier work
[4] = tested on: Primary cortical neurons; experiment: Cell death due to trophic factor withdrawal; format: cell-based, mouse; settings: HCQ 0.25, 2.5 and 25 μM
Method: Cell death due to trophic factor withdrawal: Primary cortical neurons from E18 C57Bl/6 mice were prepared as previously described. On the day of preparation (DIV1), cortical neurons were seeded on poly-D-lysine pre-coated 96-well plates at a density of 3×10^4 cells per well. Every 4-6 days, a half medium exchange using full medium (Neurobasal, 2% B-27, 0.5 mM glutamine, 1% Penicillin-Streptomycin) was carried out. On DIV8, a full medium exchange to B-27 free medium (Neurobasal, 0.5 mM glutamine, 1% Penicillin-Streptomycin) was performed and HCQ (0.25 μM, 2.5 μM and 25 μM) was applied thereafter. […]
YO-PRO™-1 (Invitrogen; Y3603) assay was carried out to detect apoptotic cells in combination with Propidium iodide (PI; P4864 Sigma Aldrich) staining for necrotic cells. […] Plate was measured at the multimode-reader (Cytation 5, BioTek).
MTT solution was added to each well in a final concentration of 0.5 mg/mL. […] Optical density was measured with a Cytation 5 (Biotek) multimode reader at wavelength 570 nm. Values were calculated as percent of control values (vehicle control or lesion control).
The Lactate dehydrogenase (LDH) toxicity assay was carried out on the supernatants collected after treatment using the Cytotoxicity Detection Kit (Roche Diagnostics, Cat. No: 11 644 793 001). […] Absorbance was measured at 492 nm and 620 nm as reference wavelength with a Cytation 5 (Biotek) multimode reader. […]

[5] = tested on: BV-2 cells; experiment: Aβ1-42 clearance Protonex assay; format: cell-based, mouse; settings: 25 μM HCQ pretreatment, Protonex Green label
Method: Aβ1-42 clearance-Protonex assay: For Abeta (Aβ1-42) clearance Protonex assay, 5000 BV-2 cells per well (uncoated 96 well plates) were plated out. After changing cells to treatment medium, HCQ (25 μM) was applied 1 hour before stimulation with Protonex™ Green 500, SE (21216, AAT Bioquest) labelled Aβ1-42 (Bachem 4061966; final concentration in well: 200 ng/ml (dilutions in medium)). Cells treated with vehicle and cells treated with Aβ1-42 alone served as controls. After 3 h of Aβ1-42 stimulation, cells were imaged on Cytation 5 multimode reader (Biotek) and green fluorescence was measured.

[6] = tested on: microglia isolated from 5xFAD mice; experiment: LPS-induced neuroinflammation on MACS isolated 5xFAD microglia; format: cell-based, mouse
Method: MACS microglia isolation and cultivation: Adult microglia were isolated from 9 months old 5xFAD mice via magnetic cell sorting (MACS). The mice were terminally anesthetized by i.p. injection of Pentobarbital (600 mg/kg, dosing 10 μL/g body weight) and brains were transcardially perfused with DPBS. Brains were removed, the brainstem discarded and the remaining brain minced for cell dissociation. Cell dissociation was performed using Miltenyi Adult Brain Dissociation Kit (Miltenyi, 130-107-677). MACS cell separation was performed using CD11b (Microglia) MicroBeads, mouse (Miltenyi, 130-093-634) and MS columns on OctoMACS™ cell separator (Miltenyi). Isolated microglia were seeded onto 0.01% PLL coated plates at a density of 10.000 cells per well in 384 well plate in DMEM containing 10% FBS,1% penicillin/streptomycin, and 2 mM L-glutamine.
LPS-induced neuroinflammation on MACS isolated 5xFAD microglia: On DIV7 HCQ at 0.25 μM, 2.5 μM and 25 μM was applied 1 hour before LPS stimulation (Sigma-Aldrich; L6529; 1 mg/ml stock in ddH2O, final concentration in well: 50 ng/ml (dilutions in medium)). Cells treated with vehicle, cells treated with LPS alone, as well as cells treated with LPS plus reference item (dexamethasone 10 μM, Sigma D4902) served as controls. After 24 h of stimulation, cell supernatants were collected for the cytokine measurement (V-PLEX Proinflammatory Panel 1 Mouse Kit, K15048D, Mesoscale).

[7] = tested on: iPSCs; experiment: LPS induced neuroinflammation (iPSCs); format: cell-based; settings: posterior probability of a protective effect
Method: Cell-based assays: For each combination of drugs and assay, the posterior probability P(Hi|data) of protective, neutral, and adverse drug effect (formal hypotheses H1, H0, H2, respectively) were evaluated. Dose-response relationships (x-y data) were modeled with a Bayesian nonlinear regression model:
and Bayesian estimation of the posterior density of the fold change was performed using default settings of the Markov chain Monte Carlo samples implemented by the PyMC python library. For efficient sample, each bioactivity data set was standardized such that […] corresponded to one standard deviation. Diagnostic criteria (posterior sample of fitted curves, effective sample sizes, values of the r statistic, and Markov chain standard errors) were inspected for the fit and three poorly fitted data sets out of a total of 91 data sets were excluded.

Structure (SMILES)	serious side effects of retinopathy and cardiac toxicity [1]	Kp brain/plasma [2]	Kp brain/plasma [3]	cell death in response to trophic factor withdrawal [4]	microglial uptake of Aβ1-42 into acidic cellular compartments [5]	release of IL1-b [6]	release of IL-10 [6]	release of IL-12p70 [6]	release of IL6 ([6]; HCQ 0.25-25 μM)	effect in LPS induced neuroinflammation (iPSCs) [7]
CCN(CCO)CCCC(C)Nc1ccnc2cc(Cl)ccc12 (stereo not shown) [HCQ, hydroxychloroquine]	relatively rare	21.99±0.11	4-31	No effects	enhances	lowered	lowered	lowered	lowered	–
C[C@H](CCC(=O)NCCS(=O)(=O)O)[C@H]1CC[C@H]2[C@@H]3[C@@H](O)C[C@@H]4C[C@H](O)CC[C@]4(C)[C@H]3CC[C@]12C [TUDCA, tauroursodeoxycholic acid]	–	–	–	–	–	–	–	–	–	strongly protective

Source: patent US20240269128A1, “COMPOUNDS FOR TREATING OR PREVENTING ALZHEIMER'S DISEASE” (THE UNITED STATES OF AMERICA, as represented by the …, priority 2021, published 2024)
